Experimental data taken from patent US6255335A, “Substituted 2-oxo-alkanoic acid-[2-(indol-3-yl)-ethyl] amides” (Bayer Aktiengesellschaft, priority 1998, dated 2001).
Values after ≈ are worked out from the molar mass of the structure shown.

Key:
Assay type in all cases: cell-based
[1] = system: Staph. aureus; experiment: MIC by serial dilution on iso-sensitest agar, Staph. aureus; settings: Staphylococcus aureus, 37° C., about 20 hours
Description: (§1) The minimum inhibitory concentrations (MIC) of the compounds according to the invention were determined by serial dilution methods on iso-sensitest agar (Oxoid). For each test substance, a number of agar plates were prepared which, each with a doubled dilution, contained decreasing concentrations of the active compound. The agar plates were inoculated using a multipoint inoculator (Denley). For inoculation, overnight cultures of the pathogens were used which had previously been diluted such that each inoculation point contained about 10^4 colony-forming particles. The inoculated agar plates were incubated at 37° C., and the bacterial growth was read off after about 20 hours. The MIC value (μg/ml) indicates the lowest active compound concentration at which no growth could be detected with the naked eye.

[2] = system: Staph. interm.; experiment: MIC by serial dilution on iso-sensitest agar, Staph. interm.; settings: strain ATCC 29663; 37° C., about 20 hours
Description: as §1

[3] = system: Staph. hyicus; experiment: MIC by serial dilution on iso-sensitest agar, Staph. hyicus; settings: Staphylococcus hyicus, 20 h, 37° C., about 20 hours
Description: as §1

[4] = strain 9621, actual clinical isolate
[5] = strain 9622, actual clinical isolate
[6] = strain 9637, actual clinical isolate
[7] = strain 9641, actual clinical isolate

Structure (SMILES)	MIC ([1]; ATCC6538, strain ATCC 6538) [µg/mL]	MIC ([1]; ATCC25923, strain ATCC 25923) [µg/mL]	MIC ([1]; ATCC29213, strain ATCC 29213) [µg/mL]	MIC [2] [µg/mL]	MIC [3, 4] [µg/mL]	MIC [3, 5] [µg/mL]	MIC [3, 6] [µg/mL]	MIC [3, 7] [µg/mL]
CCC(C)C(=O)C(=O)NCCc1c[nH]c2ccccc12 (stereo not shown) [A, reference compound]	0.25 (≈ 0.918 µM)	0.125 (≈ 0.459 µM)	0.125 (≈ 0.459 µM)	8 (≈ 29.4 µM)	1 (≈ 3.67 µM)	0.5 (≈ 1.84 µM)	0.25 (≈ 0.918 µM)	0.25 (≈ 0.918 µM)
CC(C)CC(=O)C(=O)NCCc1c[nH]c2ccccc12 [B, reference compound]	0.125 (≈ 0.459 µM)	0.25 (≈ 0.918 µM)	0.25 (≈ 0.918 µM)	2 (≈ 7.34 µM)	0.25 (≈ 0.918 µM)	0.03 (≈ 0.11 µM)	0.25 (≈ 0.918 µM)	0.25 (≈ 0.918 µM)
CCC(C)C(=O)C(=O)NCCc1cn(C)c2ccccc12 (stereo not shown) [Compound 1]	0.015 (≈ 0.0524 µM)	0.015 (≈ 0.0524 µM)	0.015 (≈ 0.0524 µM)	2 (≈ 6.98 µM)	0.06 (≈ 0.21 µM)	0.06 (≈ 0.21 µM)	0.015 (≈ 0.0524 µM)	0.015 (≈ 0.0524 µM)
CC(C)CC(=O)C(=O)NCCc1cn(C)c2ccccc12 [Compound 2]	0.03 (≈ 0.105 µM)	0.03 (≈ 0.105 µM)	0.03 (≈ 0.105 µM)	2 (≈ 6.98 µM)	0.03 (≈ 0.105 µM)	0.03 (≈ 0.105 µM)	0.03 (≈ 0.105 µM)	0.03 (≈ 0.105 µM)
CCC(C)C(=O)C(=O)NCCc1cn(C(C)C)c2ccccc12 (stereo not shown) [Compound 3]	0.03 (≈ 0.0954 µM)	0.03 (≈ 0.0954 µM)	0.03 (≈ 0.0954 µM)	4 (≈ 12.7 µM)	1 (≈ 3.18 µM)	0.5 (≈ 1.59 µM)	0.03 (≈ 0.0954 µM)	0.03 (≈ 0.0954 µM)
CC(C)CC(=O)C(=O)NCCc1cn(C(C)C)c2ccccc12 [Compound 4]	0.125 (≈ 0.398 µM)	0.06 (≈ 0.191 µM)	0.25 (≈ 0.795 µM)	2 (≈ 6.36 µM)	0.06 (≈ 0.191 µM)	0.25 (≈ 0.795 µM)	0.125 (≈ 0.398 µM)	0.125 (≈ 0.398 µM)
CC(C)CC(=O)C(=O)NCCc1cn(-c2ccccc2)c2ccccc12 [Compound 5]	0.03 (≈ 0.0861 µM)	0.06 (≈ 0.172 µM)	0.06 (≈ 0.172 µM)	1 (≈ 2.87 µM)	0.06 (≈ 0.172 µM)	0.015 (≈ 0.043 µM)	0.06 (≈ 0.172 µM)	0.06 (≈ 0.172 µM)
CCC(C)C(=O)C(=O)NCCc1cn(Cc2ccccc2)c2ccccc12 (stereo not shown) [Compound 6]	0.125 (≈ 0.345 µM)	0.125 (≈ 0.345 µM)	0.125 (≈ 0.345 µM)	8 (≈ 22.1 µM)	1 (≈ 2.76 µM)	1 (≈ 2.76 µM)	0.125 (≈ 0.345 µM)	0.125 (≈ 0.345 µM)
